# In patent publication US8440849B2, “Use of nitroaniline derivatives for the production of nitric oxide” (STMicroelectronics S.r.l., priority 2006, dated 2013):
# Assay: NO photo-release, fluorimetric DAN (2,3-diaminonaphthalene) assay measuring nitrite levels
# Details: for NO release after irradiation (presence of nitrites, fluorescent spectrum): 350 nm, 8 lamps
# Text: It allows the indirect determination of NO by measuring nitrite levels. In particular, NO is an highly reactive gas that, in the presence of water, forms an equimolar mixture of nitrites and nitrates. Nitrites, reacting with a DAN (2,3-diaminonaphtalene) solution in the presence of an acid, form 1-naphthotriazole, a highly fluorescent compound having a characteristic UV absorbance.
# Therefore, the solution of 4-nitro-3-(trifluoromethyl)aniline in methanol after irradiation was dried and then the recovered 4-nitro-3-(trifluoromethyl)aniline was re-dissolved with water and phosphate buffer 0.1 M (pH 7.4). 150 μl of a DAN solution were added to the solution of 4-nitro-3-(trifluoromethyl)aniline heating at 50° C. for 40 minutes. Subsequently, 150 μl of concentrated NaOH was added in order to obtain naphthotriazole ions according to the scheme below.
# 300 μl of a DAN saturated solution in HCl 0.6 M were added to 3 ml of the irradiated solution of 10-(3-(trifluoromethyl)-4-Nitrophenylamino)decan-1-thiol followed by heating at 50° C. for 20 minutes.
# Subsequently, 1 ml of NaOH was added to 1 ml of the solution in order to obtain naphthotriazole ions.
# The NO photo-release of the nanoparticles functionalized with 1043-(trifluoromethyl)-4-Nitrophenylamino)decan-1-thiol was measured using fluorimetric assay based on 2,3-diaminonaphthalene (DAN) [T. P. Misko, R. J. Schilling, D. Salvemini, W. M. Moore, M. G. Currie, Anal. […]], as shown in Examples 1 and 2 (FIG. 8).
Structure (SMILES),"NO release after irradiation (presence of nitrites, fluorescent spectrum) (methanol solution, 2 hours, DAN, phosphate buffer pH 7.4, FIG. 4)","NO release after irradiation (presence of nitrites, fluorescent spectrum) (CH3OH:H2O (10%) solution, 35 minutes, DAN in HCl 0.6 M, FIG. 6)","NO photo-release profile (trend of the curve) (fluorimetric DAN assay, FIG. 8)"
Nc1ccc([N+](=O)[O-])c(C(F)(F)F)c1 [4-nitro-3-(trifluoromethyl)aniline],formation of NO,–,–
O=[N+]([O-])c1ccc(NCCCCCCCCCCS)cc1C(F)(F)F [10-(3-(trifluoromethyl)-4-Nitrophenylamino)decan-1-thiol],–,formation of NO,linear behavior
